In US11331330B2, “Phytochemical-antibiotic combination for the treatment of a bacterial infection” (University of Saskatchewan, priority 2018, dated 2022):
Values after ≈ are worked out from the molar mass of the structure shown. “Also recorded” adds a separate entry of the source.

Columns and labels:
P. multocida ATCC 43137 = assay: Synergy studies, checker board serial dilution; type: cell-based, Pasteurella multocida; details: gallic acid alone, 3.9 μg/ml dose
Method: (§1) For the drug interaction studies, gallic acid was mixed with tulathromycin to test the drug interactions between tulathromycin and gallic acid. This was done by a checker board serial dilution technique performed in 96-well polypropylene plates (as explained elsewhere, for example, in [11]). The fractional inhibitory concentration (FIC) index of the combinations of antimicrobial compounds was calculated according to the equation: FIC index=FICA+FICB=A/MICA+B/MICB where A (gallic acid) and B (Tulathromycin) are the MICs of compound A and compound B in combination. MICA and MICB are the MICs of compound A and compound B, separately, FICA and FICB are the FICs of compound A and compound B (Hal M J J Antimicrob Chemother. 1983 May; 11(5):427-33). Results (a) Antimicrobial Activity of Tulathromycin and Gallic Acid
(§2) • FICA, FICB—Fractional inhibitory concentration of drug A & B respectively. • MICA, MICB—Minimum inhibitory concentration of drug A & B respectively. • [A], [B]—Concentration of drug A & B respectively. • The FIC indexes were interpreted as follows: synergy is defined as ≤0.5; additivity is defined as 0.5<4.0; and antagonism is defined as >4. (d) Resistance Generation Study Results

M. haemolytica = assay: Resistance generation study; type: cell-based, Mannheimia haemolytica; details: sub-MIC (1/2 MIC) doses, stress generation conditions
Method: (§3) For the resistance generation studies, M. haemolytica and P. multocida were cultured in the presence of sub-MIC doses (1/2 MIC) of tulathromycin and gallic acid individually until they reach 1 unit OD at 565 nm. The bacterial cells were then given antibiotic stress relaxation by culturing them in BHIB till 1 OD unit of turbidity is reached at 565 nm. This first pass cycle of culturing in sub-MIC dose of tulathromycin, and relaxing in BHIB is considered as 1st generation (1G-TulathromycinA). The cycle as above was repeated to obtain 2nd and 3rd generation of bacterial cultures. Subsequently, MIC assays were performed with all the three generations of the two bacterial strains to evaluate the level of sensitivity towards tulathromycin. The experiments were repeated with gallic acid.
(§4) Bacteria were treated individually with sub-MIC dose (½ MIC) of tulathromycin and gallic acid with alternate relaxation of stress in BHIB for […] each. Each 24 hrs treatment was considered as 1 generation (24 hrs drug+24 hrs of BHIB).

[1] = test system: co-culture of M. haemolytica and P. multocida; assay: MIC against the co-culture; type: cell-based
Method: MIC of tulathromycin, gallic acid and its combinations were determined against the co-culture of M. haemolytica and P. multocida. The overnight grown cultures of M. haemolytica and P. multocida were adjusted to 0.5 McFarland standard turbidity in BHIB, and then equal proportion of each of the cultures was added in the 96 well plates. After the addition of serially diluted drugs, the plates were incubated at 37° C. overnight and read as of above.

[2] = test system: Mannheimia haemolytica ATCC 29702; assay: MIC by standard broth micro dilution assay (CLSI); type: cell-based; details: ATCC29702, M. haemolytica, BHIB, 37° C., 18-24 h
Method: (§5) The bacterial strains of Mannheimia haemolytica ATCC 29702 and Pasteurella multocida ATCC 43137 were purchased from American Type Culture Collection (ATCC) distributor CEDARLANE Corporation, Burlington, Ontario, Canada and revived according to the manufacturer's instruction. Bacteria were grown in Brain Heart Infusion broth (BHIB).
(§6) MIC of tulathromycin and gallic acid against Mannheimia haemolytica and Pasteurella multocida was determined by using standard broth micro dilution assay as outlined by CLSI (Richard S, Lynn S-M, Avery C G. Antimicrobial susceptibility testing protocols. New York: CRC Press; 2007). Strains were sub-cultured in Brain Heart Infusion Broth (BHIB), incubated at 37° C. overnight and bacterial suspension OD was adjusted with the media to 0.5 McFarland turbidity as per CLSI protocol (Approx. cell density 1.5×10^8 CFU/mL) using normal saline as control. 100 μl of broth was added to each well (including positive control wells) and then serial dilution of tulathromycin (5 to 0.04 μg/ml) and gallic acid (500 to 3.9 μg/ml) was executed. 5 μl of bacterial sample was added to all the wells except the positive control well. […] Plates were then incubated at 37° C. for 18-24 h and were subsequently read automatically by using 96 well plate reader (BIORAD iMark Microplate Reader) at 655 nm. The readings were double checked manually using the Sensititre Vizion System.

[3] = test system: Pasteurella multocida ATCC 43137; assay: MIC by standard broth micro dilution assay (CLSI); type: cell-based; details: ATCC43137, P. multocida, BHIB, 37° C., 18-24 h
Method: as §5, §6

[4] = test system: M. haemolytica ATCC 29702; assay: Synergy studies, checker board serial dilution; type: cell-based, Mannheimia haemolytica; details: gallic acid alone, 3.9 μg/ml dose
Method: as §1, §2

P. multocida = assay: Resistance generation study; type: cell-based, Pasteurella multocida; details: sub-MIC (1/2 MIC) doses, stress generation conditions
Method: as §3, §4

arginase = arginase inhibitor; cited from earlier work

## O=C(O)c1cc(O)c(O)c(O)c1 [gallic acid]
P. multocida ATCC 43137
  maximum reduction in bacterial growth: 5.33%
M. haemolytica
  effect of sub-MIC pre-treatment on sensitivity of the bacteria: does not affect the sensitivity; also recorded: no effect on the sensitivity
[1]
  MIC: 500 µg/mL
[2]
  MIC: 250 µg/mL (≈ 1470 µM)
[3]
  MIC: 500 µg/mL (≈ 2940 µM)
[4]
  maximum reduction in bacterial growth: 7.70%
P. multocida
  effect of sub-MIC pre-treatment on sensitivity of the bacteria: did not alter the sensitivity; also recorded: no effect on the sensitivity
arginase
  IC50: 2.2 µM
